Calls of active or inactive are those of the source. For most assays here, no stated cut-off is given here; in the data, actives have a measured IC50 and inactives only a lower limit.
Tests used:
[1] = biological target: T1, Tyrosyl-DNA phosphodiesterase 2 (Homo sapiens, UniProt O95551); experiment: potency against TDP2 phosphodiesterase activity – biochemical, epi absorbance, IC50, dose response (AID 743297)
T1 sequence (O95551 whole entry): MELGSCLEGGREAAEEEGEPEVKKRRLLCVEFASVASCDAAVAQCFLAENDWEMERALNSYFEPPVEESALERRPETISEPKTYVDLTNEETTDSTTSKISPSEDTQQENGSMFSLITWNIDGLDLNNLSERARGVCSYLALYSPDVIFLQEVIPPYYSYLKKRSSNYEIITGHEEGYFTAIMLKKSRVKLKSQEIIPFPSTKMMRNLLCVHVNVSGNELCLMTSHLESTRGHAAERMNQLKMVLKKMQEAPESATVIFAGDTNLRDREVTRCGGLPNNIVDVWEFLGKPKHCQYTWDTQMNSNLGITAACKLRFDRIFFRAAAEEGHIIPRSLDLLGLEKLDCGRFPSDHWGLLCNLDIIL

[2] = biological target: T2, Sentrin-specific protease 6 (Homo sapiens, UniProt Q9GZR1); assay type: functional;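 further: Luminescence-based dose-response confirmatory assay of SENP6 inhibition, following up an ultra-high-throughput screen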
T2 sequence (Q9GZR1 whole entry): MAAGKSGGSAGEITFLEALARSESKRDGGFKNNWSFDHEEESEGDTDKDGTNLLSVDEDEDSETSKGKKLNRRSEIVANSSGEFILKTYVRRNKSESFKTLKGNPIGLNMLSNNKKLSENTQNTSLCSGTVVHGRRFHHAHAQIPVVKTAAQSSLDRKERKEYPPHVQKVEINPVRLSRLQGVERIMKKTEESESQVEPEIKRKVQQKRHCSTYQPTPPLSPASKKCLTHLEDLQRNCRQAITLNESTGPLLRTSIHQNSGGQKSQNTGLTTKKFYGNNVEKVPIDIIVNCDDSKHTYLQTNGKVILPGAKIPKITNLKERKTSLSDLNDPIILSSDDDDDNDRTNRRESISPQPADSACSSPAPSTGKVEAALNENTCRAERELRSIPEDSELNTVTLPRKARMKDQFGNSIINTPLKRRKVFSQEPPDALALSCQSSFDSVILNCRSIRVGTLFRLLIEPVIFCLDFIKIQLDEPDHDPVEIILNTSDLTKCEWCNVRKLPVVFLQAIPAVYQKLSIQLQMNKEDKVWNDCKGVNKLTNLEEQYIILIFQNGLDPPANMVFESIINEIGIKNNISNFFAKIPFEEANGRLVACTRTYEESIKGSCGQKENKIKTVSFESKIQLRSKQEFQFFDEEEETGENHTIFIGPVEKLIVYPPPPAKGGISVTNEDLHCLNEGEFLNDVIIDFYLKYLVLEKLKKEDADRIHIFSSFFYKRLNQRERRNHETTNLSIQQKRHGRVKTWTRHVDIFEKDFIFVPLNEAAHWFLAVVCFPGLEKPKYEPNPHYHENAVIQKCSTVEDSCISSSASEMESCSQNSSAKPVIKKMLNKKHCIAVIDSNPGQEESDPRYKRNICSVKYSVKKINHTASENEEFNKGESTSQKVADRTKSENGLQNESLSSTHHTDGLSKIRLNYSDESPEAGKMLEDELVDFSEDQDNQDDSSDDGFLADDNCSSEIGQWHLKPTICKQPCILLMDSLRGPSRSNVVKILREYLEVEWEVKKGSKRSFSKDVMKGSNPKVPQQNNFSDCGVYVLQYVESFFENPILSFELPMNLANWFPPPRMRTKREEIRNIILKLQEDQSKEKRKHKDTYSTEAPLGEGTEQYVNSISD

[3] = biological target: T3, Sentrin-specific protease 8 (Homo sapiens, UniProt Q96LD8); assay type: functional;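 further: luminescence read-out of SENP8 inhibition, dose-response confirmation following an ultra-high-throughput screen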
T3 sequence (Q96LD8 whole entry): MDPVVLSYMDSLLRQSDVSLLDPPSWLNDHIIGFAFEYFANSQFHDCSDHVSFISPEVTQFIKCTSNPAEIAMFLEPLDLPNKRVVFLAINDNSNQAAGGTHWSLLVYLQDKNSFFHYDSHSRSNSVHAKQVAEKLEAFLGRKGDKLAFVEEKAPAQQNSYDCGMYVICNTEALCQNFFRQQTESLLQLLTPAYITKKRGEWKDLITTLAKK

[4] = biological target: T4, Sentrin-specific protease 7 (Homo sapiens, UniProt Q9BQF6); assay type: functional;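 further: Luminescence-based dose-response confirmation of ultra-high-throughput screening hits, measuring inhibition of SENP7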
T4 sequence (Q9BQF6 whole entry): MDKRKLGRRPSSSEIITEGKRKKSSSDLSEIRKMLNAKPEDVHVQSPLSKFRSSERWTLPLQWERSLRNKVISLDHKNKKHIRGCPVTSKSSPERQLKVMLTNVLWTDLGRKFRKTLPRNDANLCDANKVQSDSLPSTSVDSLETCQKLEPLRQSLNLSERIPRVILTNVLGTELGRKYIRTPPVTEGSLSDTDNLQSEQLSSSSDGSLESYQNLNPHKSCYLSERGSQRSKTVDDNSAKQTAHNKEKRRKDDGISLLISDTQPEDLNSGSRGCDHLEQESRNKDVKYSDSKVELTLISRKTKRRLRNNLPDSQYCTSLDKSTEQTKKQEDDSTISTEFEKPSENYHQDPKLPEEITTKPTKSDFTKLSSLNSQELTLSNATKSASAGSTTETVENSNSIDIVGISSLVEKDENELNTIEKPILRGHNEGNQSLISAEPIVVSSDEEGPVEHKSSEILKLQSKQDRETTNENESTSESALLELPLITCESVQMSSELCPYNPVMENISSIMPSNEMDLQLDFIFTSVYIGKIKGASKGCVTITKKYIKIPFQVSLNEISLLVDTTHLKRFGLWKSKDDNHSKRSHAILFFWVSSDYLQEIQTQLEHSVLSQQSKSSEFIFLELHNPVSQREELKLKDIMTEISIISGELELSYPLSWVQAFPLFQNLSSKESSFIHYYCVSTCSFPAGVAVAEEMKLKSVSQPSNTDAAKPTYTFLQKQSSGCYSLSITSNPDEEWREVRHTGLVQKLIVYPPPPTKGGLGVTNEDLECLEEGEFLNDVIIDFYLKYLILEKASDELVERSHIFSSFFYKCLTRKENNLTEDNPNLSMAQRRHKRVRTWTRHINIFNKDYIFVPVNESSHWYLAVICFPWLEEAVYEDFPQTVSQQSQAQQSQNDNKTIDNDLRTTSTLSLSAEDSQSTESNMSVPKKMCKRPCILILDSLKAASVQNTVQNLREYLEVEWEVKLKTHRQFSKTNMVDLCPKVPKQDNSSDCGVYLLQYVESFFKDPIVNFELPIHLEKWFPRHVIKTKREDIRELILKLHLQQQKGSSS

INS1 = experiment: INS-1E survival protection against cytokine death – cell-based, luminescence, retest, dose response (AID 449756); assay type: functional; settings: Rattus norvegicus;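 further: cell death triggered by IL-1 beta plus TNF-alpha plus IFN-gamma mixture; protective hits raise ATP signal compared with cytokine alone wells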

With `COc1ccc(OC)c(Nc2cc3ccccc3c(O)n2)c1` the IC50 [1] was 24.9 µM (inactive), the IC50 [2] was < 1.55 µM (active) and the IC50 [3] was 2.45 µM (active). The IC50 [4] was 2.19 µM (active).
With `O=C(O)c1ccc(NC2=C/C(=N/S(=O)(=O)c3ccccc3)c3ccccc3C2=O)cc1` the IC50 [1] was 1.88 µM (active), the IC50 [2] was 0.743 µM (active) and the IC50 [3] was 1.38 µM (active). The IC50 [4] was 2.06 µM (active).
For `Nc1ccc2c(c1)C(=O)C(=O)c1ccccc1-2`, the IC50 [1] was 1.34 µM (active) and the AC50 (INS1) was 1.06 µM (active).
With `CCCC(=O)NC(c1ccccc1OC)c1ccc2cccnc2c1O` (stereo unspecified) the AC50 (INS1) was 1.14 µM (active).
